Experimental data published in patent publication US20210244720A1, “Therapeutic Tyrosine Kinase Inhibitors for Relapsing Multiple Sclerosis (RMS)” (Genzyme Corporation, priority 2020, published 2021).

Experiments:
[1] = biological target: T1, CYP2C8 (Homo sapiens, UniProt P10632); experiment: Preclinical drug metabolism studies, CYP2C8; assay type: in vitro ADME
T1 sequence (P10632 1-490): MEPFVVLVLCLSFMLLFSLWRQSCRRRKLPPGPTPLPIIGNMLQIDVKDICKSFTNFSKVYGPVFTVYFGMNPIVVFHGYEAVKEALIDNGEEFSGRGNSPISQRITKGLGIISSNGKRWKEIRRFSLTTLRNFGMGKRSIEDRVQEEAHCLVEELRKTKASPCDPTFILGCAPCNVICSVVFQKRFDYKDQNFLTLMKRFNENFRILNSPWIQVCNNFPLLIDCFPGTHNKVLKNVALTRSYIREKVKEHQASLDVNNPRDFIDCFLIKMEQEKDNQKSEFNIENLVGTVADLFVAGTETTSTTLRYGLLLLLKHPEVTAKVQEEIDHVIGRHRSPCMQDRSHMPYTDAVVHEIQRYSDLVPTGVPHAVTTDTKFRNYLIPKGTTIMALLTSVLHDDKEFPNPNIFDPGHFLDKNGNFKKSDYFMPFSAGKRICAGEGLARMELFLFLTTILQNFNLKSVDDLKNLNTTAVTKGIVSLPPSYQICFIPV
Source text: (§1) See Table 12 for the list of drugs not to be used.

[2] = test system: CYP3A; experiment: Preclinical drug metabolism studies, CYP3A; assay type: in vitro ADME
Source text: as §1

[3] = test system: participants with relapsing multiple sclerosis (RMS); experiment: Phase 2b dose-finding study in RMS: brain MRI lesion counts; conditions: for New Gd-enhancing T1-hyperintense lesions: patients with 0 lesions, % / New Gd-enhancing T1-hyperintense lesions: patients with 1 lesion, % / New Gd-enhancing T1-hyperintense lesions: patients with 2 lesions, % / New Gd-enhancing T1-hyperintense lesions: patients with >=3 lesions, % / New or enlarging T2 lesions: patients with 0 lesions, % / New or enlarging T2 lesions: patients with 1 lesion, % / New or enlarging T2 lesions: patients with 2 lesions, % / New or enlarging T2 lesions: patients with >=3 lesions, % / Total Gd-enhancing T1-hyperintense lesions: patients with 0 lesions, % / Total Gd-enhancing T1-hyperintense lesions: patients with 1 lesion, % / Total Gd-enhancing T1-hyperintense lesions: patients with 2 lesions, % / Total Gd-enhancing T1-hyperintense lesions: patients with >=3 lesions, %: after 12 weeks
Method: People diagnosed with RMS are eligible for enrollment as long as they meet all inclusion and no exclusion criteria.
Cranial (brain) MRI with and without Gd contrast is performed. Basic MRIs are performed for all participants at all study sites and consist of T2- and T1-weighted sequences without and with Gd contrast.
New T1 Gd-enhancing hyperintense and new and enlarging T2 lesions are evaluated at each visit as per the SoA (Table 1), comparing lesion count to that from the previous MRI scan. Unless specified otherwise, the baseline brain MRI is used as the reference to assess all MRI-derived endpoints. The baseline MRI is the last MRI performed before the randomization visit. Standardized endpoint evaluation is assured by central review of brain MRI scans. Blinded central review is performed for all MRI-derived endpoints. Magnetic resonance imaging reviewers are blinded to treatment assignments and to other participant data.
The first step of this procedure tests for an efficacy signal (compared to the null hypothesis of a flat, no dose-response curve) in a procedure that controls the type 1 error. […] The second step is the Dose estimation of the dose-response curve, provided that an efficacy signal is established in the first step.
The 4-week post-randomization placebo data from Cohort 2 (i.e., Week 4 data from Cohort 2) is utilized as the placebo data at Week 12 in analysis, under the assumption of a constant rate of Gd-enhancing T1-hyperintense lesion formation if participants would be receiving placebo over 12 weeks. Participants in Cohort 2 contribute to the placebo data (at Week 4) as well as the data for 4 BTK inhibitor doses (at Week 16). […] If step 1 yields significant results, the best fitting model from the 6 predefined candidate models is chosen using the generalized Akaike information criterion (AIC).
The first step of this procedure tested for an efficacy signal (compared to the null hypothesis of a flat, no dose-response curve) in a procedure that controls the type 1 error.
The MRI assessments were excluded from the analyses if the participant was receiving systemic corticosteroids within the 30 days prior to the MRI assessment date. The 4-week post-randomization placebo data from Cohort 2 (i.e., Week 4 data from Cohort 2) was utilized as the placebo data at Week 12 in analysis under the assumption of a constant rate of Gd-enhancing T1-hyperintense lesion formation if participants were to receive placebo over 12 weeks. Participants in Cohort 2 contributed to the placebo data (at Week 4) as well as the data for 4 BTK inhibitor doses (at Week 16). The 4-week placebo run-out data from Cohort 1 was not included in the analysis. […] Test statistics and adjusted p-values were provided for all 6 candidate models.
For each secondary endpoint, a similar negative binomial model and the MCP-Mod procedure were used. As it is reasonable to assume a constant rate of lesion formation over 12 weeks under placebo treatment, the same approach as that utilized for the primary endpoint was used, i.e., using the Week 4 data in Cohort 2 as the Week 12 placebo data while accounting for within-participant correlation. Descriptive summary statistics over time were provided for each of the 4 BTK inhibitor dose groups.

[4] = Pharmacokinetics in RMS patients, fed versus fasting status; assay type: in vivo, human; conditions: RMS patients of the Phase 2b study
Method: An additional PK sample is collected 3 hours post-dose (±0.5 hour) at visits during Weeks 4 and 12 for all participants in both cohorts. Data of the most recent meal prior to PK sampling are noted in the eCRF.
Additional PK parameters such as Cmax, […], and AUC at steady state are estimated using a population PK approach.
Samples from the two groups were obtained and anaylzed to evaluate pharmacokinetics parameters as described in Example 1.10 above.

[5] = test system: RGS1 mRNA in brain; experiment: In vivo mouse study, brain RGS1 Real-time PCR; conditions: naive mice, oral, once a day for 5 days, 0.6, 6, and 24 mg/kg
Method: Mice were sacrificed on day 5, 1 h post-final dose, and PBS perfused before brain was isolated. RNA was isolated from brain using the Rneasy Lipid tissue RNA isolation kid (Qiagen). RGS1 was quantified using Real-time PCR and Taqman probe (FIG. 6; one-way ANOVA, **p<0.01).

[6] = test system: RGS1 and BTK-dependent gene signature in primary mouse microglial cells; conditions: 2.5 μM, IgG 50 μg/mL, 24 h, FPKM
Source text: Primary cultures of microglia were obtained from brains of C57BL/6 postnatal mice. The mice were anesthetized with CO2 and subsequently decapitated with sterilized scissors. Brains were harvested and meninges were removed. The brains were placed in ice cold complete DMEM/F12 medium and kept on ice until processing.
The brains were removed from the medium by filtering through a 40 μm cell strainer. […] The dissociation reaction was quenched with an equal volume of complete DMEM/F12. The tissue was centrifuged at 300×g for 7 minutes. The tissue pellet was washed 3 times with complete DMEM/F12, centrifuged at 300×g for 7 minutes. After the final wash, tissue pellet was re-suspended in complete DMEM/F12 (˜1 mL/brain), triturated until no chunks are visible, then filtered through a 70 μm cell strainer. […]
The single cell suspensions were filtered through 70 μm cell strainers, centrifuged at 200×g for 6 minutes, and re-suspended at 1×10^8 cells/mL in separation media. […] After the last wash, the labeled CD11b+ microglia cells were resuspended in serum free NbActiv1 media, counted and re-suspended at the desired concentration. […]
Analysis of the RNASeq library data was conducted within Omicsoft's Array Studio platform following a standard RNAseq protocol. In general, the sequencing reads were quality checked and the samples were mapped to the mouse mm10 reference genome using the ENSEMBL.R89 gene model. […]

[7] = test system: RGS1 mRNA in naive mouse microglia; experiment: Naive primary mouse microglia, RGS1 quantitative Real time PCR; assay type: cell-based; conditions: 2.5 μM, 6 and 24 hours
Method: Primary mouse microglia were prepared from postnatal mice as described above, and were treated with 2.5 μM of the BTKi inhibitor for 6 and 24 hours. RNA was isolated and was analyzed by quantitative Real time PCR (Taqman, Thermo Fisher).

Structure (SMILES): C=CC(=O)N1CCC[C@@H](n2c(=O)n(-c3ccc(Oc4ccccc4)cc3)c3c(N)nccc32)C1 [the BTK inhibitor, (R)-1-(1-acryloylpiperidin-3-yl)-4-amino-3-(4-phenoxyphenyl)-1H-imidazo[4,5-c]pyridin-2(3H)-one]
- CYP2C8 metabolism [1]: substrate
- CYP3A metabolism [2]: substrate
- New Gd-enhancing T1-hyperintense lesions: patients with 0 lesions, % ([3]; 5 mg daily): (71.0) %
- New Gd-enhancing T1-hyperintense lesions: patients with 1 lesion, % ([3]; 5 mg daily): (6.5) %
- New Gd-enhancing T1-hyperintense lesions: patients with 2 lesions, % ([3]; 5 mg daily): (9.7) %
- New Gd-enhancing T1-hyperintense lesions: patients with >=3 lesions, % ([3]; 5 mg daily): (12.9) %
- New or enlarging T2 lesions: patients with 0 lesions, % ([3]; 5 mg daily): (61.3) %
- New or enlarging T2 lesions: patients with 1 lesion, % ([3]; 5 mg daily): (9.7) %
- New or enlarging T2 lesions: patients with 2 lesions, % ([3]; 5 mg daily): (12.9) %
- New or enlarging T2 lesions: patients with >=3 lesions, % ([3]; 5 mg daily): (16.1) %
- Total Gd-enhancing T1-hyperintense lesions: patients with 0 lesions, % ([3]; 5 mg daily): (64.5) %
- Total Gd-enhancing T1-hyperintense lesions: patients with 1 lesion, % ([3]; 5 mg daily): (12.9) %
- Total Gd-enhancing T1-hyperintense lesions: patients with 2 lesions, % ([3]; 5 mg daily): (6.5) %
- Total Gd-enhancing T1-hyperintense lesions: patients with >=3 lesions, % ([3]; 5 mg daily): (16.1) %
- New Gd-enhancing T1-hyperintense lesions: patients with 0 lesions, % ([3]; 15 mg daily): (67.7) %
- New Gd-enhancing T1-hyperintense lesions: patients with 1 lesion, % ([3]; 15 mg daily): (16.1) %
- New Gd-enhancing T1-hyperintense lesions: patients with 2 lesions, % ([3]; 15 mg daily): (3.2) %
- New Gd-enhancing T1-hyperintense lesions: patients with >=3 lesions, % ([3]; 15 mg daily): (12.9) %
- New or enlarging T2 lesions: patients with 0 lesions, % ([3]; 15 mg daily): (48.4) %
- New or enlarging T2 lesions: patients with 1 lesion, % ([3]; 15 mg daily): (22.6) %
- New or enlarging T2 lesions: patients with 2 lesions, % ([3]; 15 mg daily): (9.7) %
- New or enlarging T2 lesions: patients with >=3 lesions, % ([3]; 15 mg daily): (19.4) %
- Total Gd-enhancing T1-hyperintense lesions: patients with 0 lesions, % ([3]; 15 mg daily): (64.5) %
- Total Gd-enhancing T1-hyperintense lesions: patients with 1 lesion, % ([3]; 15 mg daily): (19.4) %
- Total Gd-enhancing T1-hyperintense lesions: patients with >=3 lesions, % ([3]; 15 mg daily): (16.1) %
- New Gd-enhancing T1-hyperintense lesions: patients with 0 lesions, % ([3]; 30 mg daily): (81.8) %
- New Gd-enhancing T1-hyperintense lesions: patients with 1 lesion, % ([3]; 30 mg daily): (12.1) %
- New Gd-enhancing T1-hyperintense lesions: patients with 2 lesions, % ([3]; 30 mg daily): (3.0) %
- New Gd-enhancing T1-hyperintense lesions: patients with >=3 lesions, % ([3]; 30 mg daily): (3.0) %
- New or enlarging T2 lesions: patients with 0 lesions, % ([3]; 30 mg daily): (72.7) %
- New or enlarging T2 lesions: patients with 1 lesion, % ([3]; 30 mg daily): (15.2) %
- New or enlarging T2 lesions: patients with 2 lesions, % ([3]; 30 mg daily): (3.0) %
- New or enlarging T2 lesions: patients with >=3 lesions, % ([3]; 30 mg daily): (9.1) %
- Total Gd-enhancing T1-hyperintense lesions: patients with 0 lesions, % ([3]; 30 mg daily): (75.8) %
- Total Gd-enhancing T1-hyperintense lesions: patients with 1 lesion, % ([3]; 30 mg daily): (12.1) %
- Total Gd-enhancing T1-hyperintense lesions: patients with 2 lesions, % ([3]; 30 mg daily): (6.1) %
- Total Gd-enhancing T1-hyperintense lesions: patients with >=3 lesions, % ([3]; 30 mg daily): (6.1) %
- New Gd-enhancing T1-hyperintense lesions: patients with 0 lesions, % ([3]; 60 mg daily): (90.3) %
- New Gd-enhancing T1-hyperintense lesions: patients with 1 lesion, % ([3]; 60 mg daily): (6.5) %
- New Gd-enhancing T1-hyperintense lesions: patients with 2 lesions, % ([3]; 60 mg daily): (3.2) %
- New or enlarging T2 lesions: patients with 0 lesions, % ([3]; 60 mg daily): (87.1) %
- New or enlarging T2 lesions: patients with 1 lesion, % ([3]; 60 mg daily): (3.2) %
- New or enlarging T2 lesions: patients with 2 lesions, % ([3]; 60 mg daily): (9.7) %
- Total Gd-enhancing T1-hyperintense lesions: patients with 0 lesions, % ([3]; 60 mg daily): (87.1) %
- Total Gd-enhancing T1-hyperintense lesions: patients with 1 lesion, % ([3]; 60 mg daily): (3.2) %
- Total Gd-enhancing T1-hyperintense lesions: patients with 2 lesions, % ([3]; 60 mg daily): (6.5) %
- Total Gd-enhancing T1-hyperintense lesions: patients with >=3 lesions, % ([3]; 60 mg daily): (3.2) %
- dose-response relationship, reduction in number of new active Gd-enhancing T1-hyperintense brain lesions ([3]; 5-60 mg once daily, 12 weeks): demonstrating a dose-response relationship
- new Gd-enhancing T1-hyperintense lesions in patients with higher AUC ([3]; patients with higher exposure): very few or no new Gd-enhancing T1-hyperintense lesions
- median AUC, fed state compared to fasted state [4]: substantially increased
- RGS1 mRNA expression in brain [5]: reduction of RGS1 mRNA expression was observed
- RGS1 mRNA expression upregulated with IgG treatment [6]: blocked
- RGS1 mRNA level in naive mouse microglia [7]: reduced
